According to ChEMBL document CHEMBL5154721, “Discovery of HDAC6-Selective Inhibitor NN-390 with in Vitro Efficacy in Group 3 Medulloblastoma” (J Med Chem, 2022):
Calls of active or inactive are those of the source. No cut-off for these calls is given here.

Experiments:
HD-MB03 = experiment: Antiproliferative activity against human HD-MB03 cells at 964 nM after 4 hrs by microplate reader method; type: functional, cell-based
MV4-11 [1] = experiment: Induction of apoptosis in human MV4-11 cells assessed as early apoptotic cells at 1 uM after 24 hrs by Annexin V/PI staining based flow cytometric analysis (Rvb=2%); type: functional
MV4-11 [2] = experiment: Induction of apoptosis in human MV4-11 cells assessed as late apoptotic cells at 0.25 uM after 24 hrs by Annexin V/PI staining based flow cytometric analysis (Rvb=8.13%); type: functional
[3] = Cytotoxicity against primary normal human fibroblast cells assessed as inhibition of cell growth incubated for 72 hrs measured by spectrophotometer analysis; type: toxicity, cell-based
MV4-11 [4] = experiment: Induction of apoptosis in human MV4-11 cells assessed as late apoptotic cells at 2 uM after 18 hrs by Annexin V/PI staining based flow cytometric analysis; type: functional
[5] = molecular target: T1, Protein deacetylase HDAC6 (Homo sapiens) (UniProt Q9UBN7); experiment: Inhibition of full length human recombinant HDAC6 in human MV4-11 cells assessed as increase in acetylation of […] for 6 hrs by immunofluorescence imaging method; type: cell-based; conditions: dose 0.1-2 µM, DDE = dose-dependent effect
T1 sequence (whole entry): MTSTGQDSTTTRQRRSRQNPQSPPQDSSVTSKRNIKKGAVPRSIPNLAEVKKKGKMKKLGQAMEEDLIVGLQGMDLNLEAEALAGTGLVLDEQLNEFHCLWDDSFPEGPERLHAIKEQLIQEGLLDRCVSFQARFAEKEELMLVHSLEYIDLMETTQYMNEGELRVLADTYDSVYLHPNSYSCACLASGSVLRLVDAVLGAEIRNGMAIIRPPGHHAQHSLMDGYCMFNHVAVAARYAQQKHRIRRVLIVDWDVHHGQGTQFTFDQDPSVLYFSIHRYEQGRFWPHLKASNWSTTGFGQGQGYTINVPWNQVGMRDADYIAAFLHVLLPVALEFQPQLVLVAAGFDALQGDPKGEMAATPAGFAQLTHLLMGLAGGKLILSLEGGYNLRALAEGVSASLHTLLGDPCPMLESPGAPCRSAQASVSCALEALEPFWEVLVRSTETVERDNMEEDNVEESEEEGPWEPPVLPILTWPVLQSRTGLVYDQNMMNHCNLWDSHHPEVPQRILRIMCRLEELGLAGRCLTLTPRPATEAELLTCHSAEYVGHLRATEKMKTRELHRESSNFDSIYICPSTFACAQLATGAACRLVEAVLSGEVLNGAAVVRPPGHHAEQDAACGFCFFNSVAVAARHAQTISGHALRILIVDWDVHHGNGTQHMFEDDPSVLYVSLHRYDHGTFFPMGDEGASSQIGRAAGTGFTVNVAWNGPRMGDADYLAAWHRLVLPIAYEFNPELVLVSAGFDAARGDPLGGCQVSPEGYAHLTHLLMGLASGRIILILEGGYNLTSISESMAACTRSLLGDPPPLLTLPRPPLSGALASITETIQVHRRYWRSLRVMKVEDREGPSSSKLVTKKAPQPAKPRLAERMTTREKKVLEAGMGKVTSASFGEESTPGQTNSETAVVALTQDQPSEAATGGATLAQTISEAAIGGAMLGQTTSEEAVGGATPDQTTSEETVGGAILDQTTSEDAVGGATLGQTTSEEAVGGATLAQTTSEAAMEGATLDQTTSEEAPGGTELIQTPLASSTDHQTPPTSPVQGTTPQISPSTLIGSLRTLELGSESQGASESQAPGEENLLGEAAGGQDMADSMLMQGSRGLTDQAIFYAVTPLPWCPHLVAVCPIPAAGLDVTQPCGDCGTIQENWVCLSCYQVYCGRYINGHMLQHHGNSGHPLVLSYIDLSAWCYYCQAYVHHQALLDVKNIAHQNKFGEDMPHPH

[6] = molecular target: T1, Protein deacetylase HDAC6 (Homo sapiens); experiment: Potency index, ratio of test compound residence time to KT-531 residence time in full length HDAC6-NanoLuc fusion protein (unknown origin) expressed in HeLa cells by NanoBRET assay; type: cell-based; conditions: time 5.0 min
[7] = Cytotoxicity against human fetal neuronal stem cells assessed as inhibition of cell growth incubated for 72 hrs measured by spectrophotometer analysis; type: toxicity, cell-based, NSC
Histone deacetylase 9 = Histone deacetylase 9 (Homo sapiens, UniProt Q9UKV0); experiment: Inhibition of full length human recombinant HDAC9 expressed in Sf9 baculovirus system using FAM-labeled acetylated peptide as substrate by measuring fluorescence intensity by EMSA method
Chain of Histone deacetylase 9 (Q9UKV0 whole entry): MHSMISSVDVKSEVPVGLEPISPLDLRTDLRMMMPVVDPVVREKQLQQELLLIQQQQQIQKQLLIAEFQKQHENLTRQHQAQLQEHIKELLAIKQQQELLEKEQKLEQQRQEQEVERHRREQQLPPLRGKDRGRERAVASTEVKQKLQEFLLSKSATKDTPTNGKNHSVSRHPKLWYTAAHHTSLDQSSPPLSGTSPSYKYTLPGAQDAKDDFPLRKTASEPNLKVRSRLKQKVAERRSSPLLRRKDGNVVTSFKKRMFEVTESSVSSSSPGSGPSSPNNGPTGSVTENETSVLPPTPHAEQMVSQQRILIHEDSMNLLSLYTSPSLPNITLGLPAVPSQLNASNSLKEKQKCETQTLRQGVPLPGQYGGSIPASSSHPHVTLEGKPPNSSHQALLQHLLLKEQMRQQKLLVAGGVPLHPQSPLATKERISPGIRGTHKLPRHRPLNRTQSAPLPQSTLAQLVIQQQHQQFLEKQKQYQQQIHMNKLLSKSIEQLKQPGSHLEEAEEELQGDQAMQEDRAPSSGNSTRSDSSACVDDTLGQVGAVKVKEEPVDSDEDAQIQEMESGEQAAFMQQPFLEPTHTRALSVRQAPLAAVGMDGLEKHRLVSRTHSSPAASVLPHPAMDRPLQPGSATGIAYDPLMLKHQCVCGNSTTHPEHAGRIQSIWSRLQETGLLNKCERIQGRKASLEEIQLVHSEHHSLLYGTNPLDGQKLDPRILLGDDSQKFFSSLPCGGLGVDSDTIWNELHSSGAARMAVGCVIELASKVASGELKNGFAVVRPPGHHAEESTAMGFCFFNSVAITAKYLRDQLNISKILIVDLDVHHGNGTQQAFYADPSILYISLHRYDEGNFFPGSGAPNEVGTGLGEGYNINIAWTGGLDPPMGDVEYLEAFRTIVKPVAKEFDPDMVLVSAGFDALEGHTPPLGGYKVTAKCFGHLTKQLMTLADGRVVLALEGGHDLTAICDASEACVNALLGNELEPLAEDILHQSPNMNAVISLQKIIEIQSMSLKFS

Histone deacetylase 4 = Histone deacetylase 4 (Homo sapiens, UniProt P56524); experiment: Inhibition of full length human recombinant HDAC4 expressed in Sf9 baculovirus system using FAM-labeled acetylated peptide as substrate by measuring fluorescence intensity by EMSA method
Chain of Histone deacetylase 4 (P56524 whole entry): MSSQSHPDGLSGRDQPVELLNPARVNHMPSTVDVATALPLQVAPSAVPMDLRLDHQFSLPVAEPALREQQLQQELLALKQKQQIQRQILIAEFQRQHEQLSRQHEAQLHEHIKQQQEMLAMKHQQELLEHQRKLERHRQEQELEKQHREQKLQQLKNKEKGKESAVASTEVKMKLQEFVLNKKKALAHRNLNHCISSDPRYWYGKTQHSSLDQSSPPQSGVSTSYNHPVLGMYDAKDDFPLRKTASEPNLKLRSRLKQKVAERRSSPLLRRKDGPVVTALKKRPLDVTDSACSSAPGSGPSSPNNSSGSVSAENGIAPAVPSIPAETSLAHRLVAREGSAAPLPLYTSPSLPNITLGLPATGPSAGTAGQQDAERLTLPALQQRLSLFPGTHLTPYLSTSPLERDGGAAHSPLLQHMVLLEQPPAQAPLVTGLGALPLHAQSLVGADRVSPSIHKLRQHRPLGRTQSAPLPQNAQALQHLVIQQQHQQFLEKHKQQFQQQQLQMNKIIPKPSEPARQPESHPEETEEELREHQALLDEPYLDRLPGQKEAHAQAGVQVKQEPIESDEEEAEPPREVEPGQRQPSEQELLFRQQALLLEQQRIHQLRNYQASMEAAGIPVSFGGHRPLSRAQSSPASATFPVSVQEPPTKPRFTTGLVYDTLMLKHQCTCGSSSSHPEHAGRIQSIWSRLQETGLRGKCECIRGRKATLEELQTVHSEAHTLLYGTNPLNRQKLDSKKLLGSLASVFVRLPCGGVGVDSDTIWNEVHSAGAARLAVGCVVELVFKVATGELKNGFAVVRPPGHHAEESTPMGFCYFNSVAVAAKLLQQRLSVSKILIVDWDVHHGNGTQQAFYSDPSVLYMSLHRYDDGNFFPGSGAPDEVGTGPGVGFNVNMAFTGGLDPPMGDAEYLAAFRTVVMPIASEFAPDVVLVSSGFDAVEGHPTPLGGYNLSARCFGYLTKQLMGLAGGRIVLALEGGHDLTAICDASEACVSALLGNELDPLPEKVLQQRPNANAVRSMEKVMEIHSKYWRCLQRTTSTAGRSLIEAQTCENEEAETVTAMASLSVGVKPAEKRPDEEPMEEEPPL

Histone deacetylase 2 = Histone deacetylase 2 (Homo sapiens, UniProt Q92769); experiment: Inhibition of full length human recombinant HDAC2 expressed in Sf9 baculovirus system using FAM-labeled acetylated peptide as substrate by measuring fluorescence intensity by EMSA method
Chain of Histone deacetylase 2 (Q92769 whole entry): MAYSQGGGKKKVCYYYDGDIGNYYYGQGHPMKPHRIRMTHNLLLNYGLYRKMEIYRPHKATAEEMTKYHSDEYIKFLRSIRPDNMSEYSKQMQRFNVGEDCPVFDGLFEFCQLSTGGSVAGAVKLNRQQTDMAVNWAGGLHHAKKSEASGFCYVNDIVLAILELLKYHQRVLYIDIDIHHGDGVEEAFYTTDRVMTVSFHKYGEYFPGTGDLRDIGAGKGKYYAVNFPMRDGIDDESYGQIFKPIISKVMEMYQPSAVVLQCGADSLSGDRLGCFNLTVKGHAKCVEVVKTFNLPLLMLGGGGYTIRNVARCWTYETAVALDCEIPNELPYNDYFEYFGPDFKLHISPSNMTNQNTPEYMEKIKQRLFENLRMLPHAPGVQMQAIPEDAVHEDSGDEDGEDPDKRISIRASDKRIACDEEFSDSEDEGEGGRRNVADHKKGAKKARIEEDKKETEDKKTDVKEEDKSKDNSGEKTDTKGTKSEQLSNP

MV4-11 [8] = experiment: Induction of apoptosis in human MV4-11 cells assessed as late apoptotic cells at 2 uM after 24 hrs by Annexin V/PI staining based flow cytometric analysis (Rvb=2%); type: functional
MV4-11 [9] = experiment: Induction of apoptosis in human MV4-11 cells assessed as late apoptotic cells at 0.75 uM after 24 hrs by Annexin V/PI staining based flow cytometric analysis (Rvb=2%); type: functional
MV4-11 [10] = experiment: Induction of apoptosis in human MV4-11 cells assessed as early apoptotic cells at 0.25 uM after 24 hrs by Annexin V/PI staining based flow cytometric analysis (Rvb=2%); type: functional
[11] = molecular target: T2, Polyamine deacetylase HDAC10 (Homo sapiens, UniProt Q969S8); experiment: Inhibition of full length human recombinant HDAC10 expressed in Sf9 baculovirus system using FAM-labeled acetylated peptide as substrate by measuring fluorescence intensity
T2 sequence (Q969S8 whole entry): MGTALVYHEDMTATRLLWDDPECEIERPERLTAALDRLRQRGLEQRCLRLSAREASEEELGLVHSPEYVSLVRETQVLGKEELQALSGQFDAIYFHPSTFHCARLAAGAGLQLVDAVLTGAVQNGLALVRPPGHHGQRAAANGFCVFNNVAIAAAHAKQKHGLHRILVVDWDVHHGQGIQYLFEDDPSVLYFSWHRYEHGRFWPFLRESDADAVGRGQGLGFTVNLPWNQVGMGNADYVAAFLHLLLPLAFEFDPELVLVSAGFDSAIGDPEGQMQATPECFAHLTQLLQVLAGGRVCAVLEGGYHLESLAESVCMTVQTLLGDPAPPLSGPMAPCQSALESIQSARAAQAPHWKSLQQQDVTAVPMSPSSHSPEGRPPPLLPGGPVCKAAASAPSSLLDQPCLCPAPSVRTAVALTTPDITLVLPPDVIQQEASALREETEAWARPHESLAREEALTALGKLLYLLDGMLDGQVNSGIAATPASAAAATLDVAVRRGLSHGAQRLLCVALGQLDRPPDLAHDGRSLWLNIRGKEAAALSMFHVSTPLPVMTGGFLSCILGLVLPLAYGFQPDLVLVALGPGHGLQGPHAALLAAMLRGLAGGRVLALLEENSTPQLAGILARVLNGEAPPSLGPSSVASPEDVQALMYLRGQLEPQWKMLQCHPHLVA

inhibition [5]: Dde
fold change (FC) [6]: 1.9
IC50 (Histone deacetylase 9): > 5 µM
IC50 (Histone deacetylase 4): > 4 µM
IC50 (Histone deacetylase 2): 0.316 µM
IC50 [11]: > 5 µM
SMILES: CC(C)N(Cc1ccc(C(=O)NO)cc1)S(=O)(=O)c1cc(F)c(F)c(F)c1F
Activity (HD-MB03): Active
Activity (MV4-11 [1]): 3.32%
Activity (MV4-11 [2]): 9%
IC50 at 72 h [3]: 12.4 µM
Activity (MV4-11 [4]): 39%
IC50 at 72 h [7]: 5.76 µM
Activity (MV4-11 [8]): 23.4%
Activity (MV4-11 [9]): 7.81%
Activity (MV4-11 [10]): 3.6%
